Common to all, as to assay: Cell proliferation assay (CellTiter-Glo, 3 days), single agent
Common to all, as to type: cell-based
Settings in all cases: 3 days treatment; read-out: Absolute IC50
Background: In ATP-based viability assays light output follows the ATP content of the culture.

For one assay, the system named is MIA PaCa-2 (Pancreas). How it is done: (§1) Two duplicate plates were set up.
(§2) At day 0, 10 μL culture medium to each well for T0 reading. […] Compound I was diluted and 10 μL of each 10× compound I from working solutions for a concentration ranging from 10 μM to about 0.005 μM. Cisplatin was diluted to about 3.33 mM to about 150 nM.
(§3) IC50's were determined for each cell line.

Another assay deals with SW756 (Cervix). Here is the method:
as §1, §2, §3

A further assay relates to NCI-H358 (Lung). How it is done:
as §1, §2, §3

The next assay has as its system NCI-H2122 (Lung). How it is done:
as §1, §2, §3

Another assay deals with HCC44 (Lung). How it is done:
as §1, §2, §3

In the next assay the test system is UM-UC-3 (bladder). Here is the method:
as §1, §2, §3

In another assay the test system is Calu-1 (Lung). Here is the method:
as §1, §2, §3

In another assay the test system is NCI-H1792 (Lung). How it is done:
as §1, §2, §3

In a further assay the test system is NCI-H23 (Lung). Here is the method:
as §1, §2, §3

For another assay, the system named is SW837 (Rectum). Here is the method:
as §1, §2, §3

For a further assay, the system named is KYSE-410 (HN/Esophagus). Here is the method: as §1, §2, §3
In another assay the test system is NCI-H1373 (Lung). Here is the method: as §1, §2, §3
Another assay has as its system SW1463 (rectum). How it is done: as §1, §2, §3

The results in this text go back to patent US20250213581A1, “COMBINATION THERAPY OF A PI3K INHIBITOR AND KRAS INHIBITOR AND METHODS OF USE THEREOF” (Totus Medicines Inc., priority 2022, published 2025).

For orientation: IC50 means the midpoint of a concentration-inhibition curve.

Consider `N.N.[Cl][Pt][Cl]` [Cisplatin, reference compound], for which the IC50 is 7.03 µM in the assay with MIA PaCa-2 (Pancreas); 10.3 µM in the assay on SW756 (Cervix); 12.5 µM in the assay with NCI-H358 (Lung); 17.8 µM in the assay with NCI-H2122 (Lung); 7.96 µM with HCC44 (Lung); 1.86 µM with UM-UC-3 (bladder). Also, the IC50 in the assay with Calu-1 (Lung) was found to be 10.2 µM; in the assay with NCI-H1792 (Lung), 4.88 µM; in the assay with NCI-H23 (Lung), 3.58 µM; in the assay on SW837 (Rectum), 42.5 µM; in the assay on KYSE-410 (HN/Esophagus), 15.8 µM; with NCI-H1373 (Lung), 8.72 µM. In addition, the IC50 in the assay with SW1463 (rectum) turned out to be 12.2 µM.
